Holding throughout (assay): relative viability (nuclei count vs DMSO), 5 days (fraction); higher = more cells survive
Compound in the test “Linsitinib + Bortezomib”: C[C@]1(O)C[C@@H](c2nc(-c3ccc4ccc(-c5ccccc5)nc4c3)c3c(N)nccn32)C1 [Linsitinib] + CC(C)C[C@H](NC(=O)[C@H](Cc1ccccc1)NC(=O)c1cnccn1)B(O)O [Bortezomib] (partner 0.002 µM)
Summed up:
(§1)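 Lung cancer cell lines were seeded in 1536-well plates and dosed by pin tool the next day, with either a single drug or a fixed anchor-drug dose combined with five library-drug doses (not always all listed) spaced in √10 steps. Five days later, one step fixed the cells and stained their nuclei (final 0.05% Triton X-100, 1% formaldehyde, 1 ug/ml Hoechst), and nuclei were counted on 4× images. Relative viability is the nuclei count in treated wells divided by the count in vehicle wells, and each value is the median of duplicate plates.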

Compound in the test “Linsitinib + Luminespib”: C[C@]1(O)C[C@@H](c2nc(-c3ccc4ccc(-c5ccccc5)nc4c3)c3c(N)nccn32)C1 [Linsitinib] + CCNC(=O)c1noc(-c2cc(C(C)C)c(O)cc2O)c1-c1ccc(CN2CCOCC2)cc1 [Luminespib] (partner 0.01 µM)
Summed up:
as §1

Compound in the test “Linsitinib + Alpelisib”: C[C@]1(O)C[C@@H](c2nc(-c3ccc4ccc(-c5ccccc5)nc4c3)c3c(N)nccn32)C1 [Linsitinib] + Cc1nc(NC(=O)N2CCC[C@H]2C(N)=O)sc1-c1ccnc(C(C)(C)C(F)(F)F)c1 [Alpelisib] (partner 2 µM)
Summed up: as §1

Compound in the test “Ispinesib + Pemetrexed”: Cc1ccc(C(=O)N(CCCN)[C@@H](c2nc3cc(Cl)ccc3c(=O)n2Cc2ccccc2)C(C)C)cc1 [Ispinesib] + Nc1nc2[nH]cc(CCc3ccc(C(=O)N[C@@H](CCC(=O)O)C(=O)O)cc3)c2c(=O)[nH]1 [Pemetrexed] (partner 0.2 µM)
Summed up:
as §1

With NCI-H650, the relative viability with Linsitinib + Bortezomib (first compound 0.01 µM) came out at 0.721; in the test with Linsitinib + Bortezomib (first compound 0.03162 µM) it was 0.768; with Linsitinib + Bortezomib (first compound 0.1 µM) it was 0.863; with Linsitinib + Bortezomib (first compound 1 µM), 0.584; with Linsitinib + Luminespib (first compound 0.01 µM) it was 0.774; with Linsitinib + Luminespib (first compound 0.03162 µM), 0.919. Moreover, the relative viability amounted to 0.877 in the test with Linsitinib + Luminespib (first compound 0.1 µM); 0.66 with Linsitinib + Luminespib (first compound 0.3162 µM); 0.669 with Linsitinib + Luminespib (first compound 1 µM); 1.34 in the test with Linsitinib + Alpelisib (first compound 0.01 µM); 1.23 in the test with Linsitinib + Alpelisib (first compound 0.03162 µM); 1.02 with Linsitinib + Alpelisib (first compound 0.1 µM). Moreover, the relative viability with Linsitinib + Alpelisib (first compound 1 µM) stood at 1.07; with Ispinesib + Pemetrexed (first compound 0.001 µM), 1.1; with Ispinesib + Pemetrexed (first compound 0.003162 µM), 1.02; with Ispinesib + Pemetrexed (first compound 0.01 µM), 0.933; with Ispinesib + Pemetrexed (first compound 0.03162 µM), 0.609; in the test with Ispinesib + Pemetrexed (first compound 0.1 µM), 0.238.

For the cell line COR-L 105, the relative viability in the test with Linsitinib + Bortezomib (first compound 0.01 µM) came to 0.821; with Linsitinib + Bortezomib (first compound 0.03162 µM), 0.619; with Linsitinib + Bortezomib (first compound 0.1 µM), 0.785; in the test with Linsitinib + Bortezomib (first compound 0.3162 µM), 0.389; in the test with Linsitinib + Bortezomib (first compound 1 µM), 0.501; with Linsitinib + Luminespib (first compound 0.01 µM) it was 0.857. Besides, the relative viability with Linsitinib + Luminespib (first compound 0.03162 µM) was 0.688; with Linsitinib + Luminespib (first compound 0.1 µM), 0.644; with Linsitinib + Luminespib (first compound 0.3162 µM), 0.638; with Linsitinib + Luminespib (first compound 1 µM), 0.581; in the test with Linsitinib + Alpelisib (first compound 0.01 µM) it was 0.843; with Linsitinib + Alpelisib (first compound 0.03162 µM), 0.869. For the same cell line, the relative viability was 1.01 with Linsitinib + Alpelisib (first compound 0.1 µM); 0.761 with Linsitinib + Alpelisib (first compound 0.3162 µM); 0.829 with Linsitinib + Alpelisib (first compound 1 µM); 1.09 with Ispinesib + Pemetrexed (first compound 0.001 µM); 1.11 with Ispinesib + Pemetrexed (first compound 0.003162 µM); 1.24 with Ispinesib + Pemetrexed (first compound 0.01 µM). The relative viability with Ispinesib + Pemetrexed (first compound 0.03162 µM) is 0.794; with Ispinesib + Pemetrexed (first compound 0.1 µM), 0.5.

On to NCI-H1755, for which the relative viability was 0.939 with Linsitinib + Bortezomib (first compound 0.01 µM); 0.882 in the test with Linsitinib + Bortezomib (first compound 0.03162 µM); 0.981 with Linsitinib + Bortezomib (first compound 0.1 µM); 0.661 with Linsitinib + Bortezomib (first compound 0.3162 µM); 0.794 in the test with Linsitinib + Bortezomib (first compound 1 µM); 0.41 with Linsitinib + Luminespib (first compound 0.01 µM). In addition, the relative viability with Linsitinib + Luminespib (first compound 0.03162 µM) turned out to be 0.244; in the test with Linsitinib + Luminespib (first compound 0.1 µM), 0.419; with Linsitinib + Luminespib (first compound 0.3162 µM), 0.327; in the test with Linsitinib + Luminespib (first compound 1 µM) it was 0.469; with Linsitinib + Alpelisib (first compound 0.01 µM) it was 0.938; with Linsitinib + Alpelisib (first compound 0.03162 µM), 0.875. The relative viability with Linsitinib + Alpelisib (first compound 0.1 µM) amounted to 0.961; in the test with Linsitinib + Alpelisib (first compound 0.3162 µM), 0.78; in the test with Linsitinib + Alpelisib (first compound 1 µM) it was 0.896; in the test with Ispinesib + Pemetrexed (first compound 0.001 µM) it was 0.486; in the test with Ispinesib + Pemetrexed (first compound 0.003162 µM), 0.439; with Ispinesib + Pemetrexed (first compound 0.01 µM) it was 0.435. Also, the relative viability with Ispinesib + Pemetrexed (first compound 0.03162 µM) was 0.496; with Ispinesib + Pemetrexed (first compound 0.1 µM), 0.325.

With NCI-H2085, the relative viability with Linsitinib + Bortezomib (first compound 0.01 µM) stood at 1.03; in the test with Linsitinib + Bortezomib (first compound 0.03162 µM), 1.06; with Linsitinib + Bortezomib (first compound 0.1 µM) it was 0.997; with Linsitinib + Bortezomib (first compound 0.3162 µM) it was 0.888; in the test with Linsitinib + Bortezomib (first compound 1 µM), 0.976; with Linsitinib + Luminespib (first compound 0.01 µM), 0.36. Also, the relative viability came to 0.425 in the test with Linsitinib + Luminespib (first compound 0.03162 µM); 0.379 with Linsitinib + Luminespib (first compound 0.1 µM); 0.402 with Linsitinib + Luminespib (first compound 0.3162 µM); 0.407 in the test with Linsitinib + Luminespib (first compound 1 µM); 0.886 with Linsitinib + Alpelisib (first compound 0.01 µM); 1.12 in the test with Linsitinib + Alpelisib (first compound 0.03162 µM). Also, the relative viability amounted to 1.06 with Linsitinib + Alpelisib (first compound 0.1 µM); 0.888 with Linsitinib + Alpelisib (first compound 0.3162 µM); 0.922 in the test with Linsitinib + Alpelisib (first compound 1 µM); 0.946 with Ispinesib + Pemetrexed (first compound 0.001 µM); 0.905 in the test with Ispinesib + Pemetrexed (first compound 0.003162 µM); 0.943 with Ispinesib + Pemetrexed (first compound 0.01 µM). For the same cell line, the relative viability with Ispinesib + Pemetrexed (first compound 0.03162 µM) stood at 0.917; in the test with Ispinesib + Pemetrexed (first compound 0.1 µM), 0.361.

NCI-H2023: the relative viability with Linsitinib + Bortezomib (first compound 0.01 µM) came out at 0.876; with Linsitinib + Bortezomib (first compound 0.03162 µM) it was 0.724; with Linsitinib + Bortezomib (first compound 0.1 µM) it was 1; with Linsitinib + Bortezomib (first compound 0.3162 µM) it was 0.239; in the test with Linsitinib + Bortezomib (first compound 1 µM), 0.602; with Linsitinib + Luminespib (first compound 0.01 µM) it was 0.599. Moreover, the relative viability with Linsitinib + Luminespib (first compound 0.03162 µM) is 0.627; with Linsitinib + Luminespib (first compound 0.1 µM), 0.879; with Linsitinib + Luminespib (first compound 0.3162 µM) it was 0.646; with Linsitinib + Luminespib (first compound 1 µM), 0.501; with Linsitinib + Alpelisib (first compound 0.01 µM), 0.533; in the test with Linsitinib + Alpelisib (first compound 0.03162 µM), 0.426. The relative viability was 0.502 with Linsitinib + Alpelisib (first compound 0.1 µM); 0.425 with Linsitinib + Alpelisib (first compound 0.3162 µM); 0.392 with Linsitinib + Alpelisib (first compound 1 µM); 0.241 with Ispinesib + Pemetrexed (first compound 0.001 µM); 0.241 in the test with Ispinesib + Pemetrexed (first compound 0.003162 µM); 0.19 in the test with Ispinesib + Pemetrexed (first compound 0.01 µM). The relative viability came out at 0.144 in the test with Ispinesib + Pemetrexed (first compound 0.03162 µM) and 0.115 in the test with Ispinesib + Pemetrexed (first compound 0.1 µM).

With HOP-62, the relative viability worked out at 0.857 with Linsitinib + Bortezomib (first compound 0.01 µM); 0.488 with Linsitinib + Bortezomib (first compound 0.03162 µM); 1.03 with Linsitinib + Bortezomib (first compound 0.1 µM); 0.379 with Linsitinib + Bortezomib (first compound 1 µM); 0.939 in the test with Linsitinib + Luminespib (first compound 0.01 µM); 0.964 in the test with Linsitinib + Luminespib (first compound 0.03162 µM). Further, the relative viability with Linsitinib + Luminespib (first compound 0.1 µM) came to 0.923; with Linsitinib + Luminespib (first compound 1 µM), 0.694; in the test with Linsitinib + Alpelisib (first compound 0.01 µM), 0.862; in the test with Linsitinib + Alpelisib (first compound 0.03162 µM), 1.09; with Linsitinib + Alpelisib (first compound 0.1 µM) it was 0.949; with Linsitinib + Alpelisib (first compound 1 µM), 0.933. Further, the relative viability was found to be 0.319 in the test with Ispinesib + Pemetrexed (first compound 0.001 µM); 0.327 in the test with Ispinesib + Pemetrexed (first compound 0.003162 µM); 0.34 in the test with Ispinesib + Pemetrexed (first compound 0.01 µM); 0.26 with Ispinesib + Pemetrexed (first compound 0.03162 µM); 0.117 with Ispinesib + Pemetrexed (first compound 0.1 µM).

Values taken from the supplement of paper PMC10307832.
